Laboratory results published in patent US10919852B2, “Immunomodulator compounds” (CHEMOCENTRYX, INC., priority 2017, dated 2021).

The molecules below were run against human PD-L1 / Human PD-1 (Homo sapiens (Human), UniProt Q9NZQ7) (assay: Enzyme-Linked Immunosorbent Assay (ELISA), PD-1/PD-L1 binding). Settings: plate-coated human PD-L1, biotinylated human PD-1.
How it was run: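 Plates were coated with human PD-L1 at […]. Biotinylated human PD-1 (0.3 μg/mL) was added with 1:5 serially diluted compound for 1 h at 37 °C. Bound PD-1 was detected with streptavidin-HRP (1 h) and TMB (20 min), with absorbance read at 450 nm.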

human PD-L1 / Human PD-1, sequence (Q9NZQ7 19-239): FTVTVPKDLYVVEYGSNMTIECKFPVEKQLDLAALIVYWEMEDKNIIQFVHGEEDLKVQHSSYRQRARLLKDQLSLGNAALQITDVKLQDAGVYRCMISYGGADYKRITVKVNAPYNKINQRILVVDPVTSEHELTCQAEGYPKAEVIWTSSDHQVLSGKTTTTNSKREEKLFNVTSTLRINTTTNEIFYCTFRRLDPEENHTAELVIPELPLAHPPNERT

Row | IC50 [nM] | Compound
1 | < 5 | CCOc1cc(O[C@H]2CCc3c(-c4cccc(OCCCN5CC[C@@H](O)C5)c4C)cccc32)c(Cl)cc1CN[C@@H](CO)C(=O)O
2 | 5 to 500 | CCOc1cc(O[C@H]2CCc3c(-c4cccc(OCCCNC(C)(C)C)c4C)cccc32)c(Cl)cc1CN1CC(C(=O)O)C1
3 | < 5 | CCOC(=O)[C@](C)(CO)NCc1cc(Cl)c(O[C@H]2CCc3c(-c4cccc(OCCCN5CC(O)C5)c4Cl)cccc32)cc1OCc1cncc(C#N)c1
4 | 5 to 500 | Cc1c(OCCCN2CCC(C)(F)CC2)cccc1-c1cccc2c1CC[C@@H]2Oc1cc(OCc2cc(C#N)cc(C#N)c2)c(CN[C@H]2CCC[C@@H]2O)cc1Cl
5 | 5 to 500 | CCOc1cc(O[C@H]2CCc3c(-c4cccc(OCCCN5CCC(F)CC5)c4Cl)cccc32)c(Cl)cc1CNC(C)(CO)CO
6 | < 5 | Cc1c(OCCCNC[C@@H](O)CO)cccc1-c1cccc2c1CC[C@@H]2Oc1cc(OCc2cncc(C#N)c2)c(CN[C@H](C(=O)O)[C@@H](C)O)cc1Cl

The remaining lines, values behind:

Row | Compound | IC50 [nM]
7 | CCOc1cc(O[C@H]2CCc3c(-c4cccc(OCCCN5CCC5(C)C)c4C)cccc32)c(Cl)cc1CN1CC(C(=O)O)C1 | 5 to 500
8 | CCOc1cc(O[C@H]2CCc3c(-c4cccc(OCCCN5CCC5(C)C)c4C)cccc32)c(Cl)cc1CN(C)CC(C)C(=O)OC (some centres unmarked) | 500 to 20000
9 | Cc1c(OCCCN2CCC(F)CC2)cccc1-c1cc(F)cc2c1CC[C@@H]2Oc1cc(OCc2cc(C#N)cc(C#N)c2)c(CN[C@H]2CCC(=O)NC2)cc1Cl | 5 to 500
10 | CCOc1cc(O[C@H]2CCc3c(-c4cccc(OCCCN5CC[C@@H](O)C5)c4C)cccc32)c(Cl)cc1CN[C@@H]1CCCC[C@@H]1O | 5 to 500
11 | Cc1c(OCCCN2CCC(F)CC2)cccc1-c1cccc2c1CC[C@@H]2Oc1cc(OCc2cc(C#N)cc(C#N)c2)c(CN[C@H]2CCC(=O)NC2)cc1Cl | 5 to 500
12 | Cc1c(OCCCN2CC[C@@H](F)C[C@@H]2C)cccc1-c1cccc2c1CC[C@@H]2Oc1cc(OCc2cc(C#N)cc(C#N)c2)c(CN[C@H]2CCC(=O)NC2)cc1Cl | 5 to 500
13 | Cc1c(OCCCN2CCCCC2)cccc1-c1cccc2c1CC[C@@H]2Oc1cc(OCc2cc(C#N)cc(C#N)c2)c(CNC[C@H]2CCC(=O)N2)cc1Cl | < 5
14 | CCOc1cc(O[C@@H]2CCc3c(-c4cccc(OCCCN5CCC5(C)C)c4C)cccc32)c(Cl)cc1CN(C)CCC(=O)O | 500 to 20000
